The supplement of paper PMC10307832

What was measured:
Test in all cases: relative viability (nuclei count vs DMSO), 5 days (fraction); higher = more cells survive
Obatoclax + Palbociclib = compound: COC1=CC(c2cc3ccccc3[nH]2)=N/C1=C\c1[nH]c(C)cc1C [Obatoclax] + CC(=O)c1c(C)c2cnc(Nc3ccc(N4CCNCC4)cn3)nc2n(C2CCCC2)c1=O [Palbociclib] (partner 0.5 µM)
How it was run: (§1)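 Lung cancer cell lines in 1536-well plates got either a single drug or a fixed anchor-drug dose together with five library-drug doses (not always all listed) in √10 steps, by pin tool, on the day after seeding. Nuclei were counted after 5 days, and relative viability is the treated-to-vehicle ratio of nuclei counts. Values are medians of duplicate plates.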

Bortezomib + Palbociclib = compound: CC(C)C[C@H](NC(=O)[C@H](Cc1ccccc1)NC(=O)c1cnccn1)B(O)O [Bortezomib] + CC(=O)c1c(C)c2cnc(Nc3ccc(N4CCNCC4)cn3)nc2n(C2CCCC2)c1=O [Palbociclib] (partner 0.5 µM)
How it was run: as §1

[1] = compound: CC1=CC(=NN1)NC2=CC(=NC(=N2)/C=C/C3=CC=CC=C3)N4CCN(CC4)C + C[C@]1(O)C[C@@H](c2nc(-c3ccc4ccc(-c5ccccc5)nc4c3)c3c(N)nccn32)C1 [Linsitinib] (partner 1 µM)
How it was run: as §1

[2] = compound: CC1=CC(=NN1)NC2=CC(=NC(=N2)/C=C/C3=CC=CC=C3)N4CCN(CC4)C + C[C@@H](Oc1cc(-c2cnn(C3CCNCC3)c2)cnc1N)c1c(Cl)ccc(F)c1Cl [Crizotinib] (partner 1 µM)
How it was run: as §1

Cell Line | relative viability (Obatoclax + Palbociclib; first compound 0.01 µM) | relative viability (Obatoclax + Palbociclib; first compound 0.03162 µM) | relative viability (Obatoclax + Palbociclib; first compound 0.1 µM) | relative viability (Obatoclax + Palbociclib; first compound 0.3162 µM) | relative viability (Obatoclax + Palbociclib; first compound 1 µM) | relative viability (Bortezomib + Palbociclib; first compound 0.0002 µM) | relative viability (Bortezomib + Palbociclib; first compound 0.000632 µM) | relative viability (Bortezomib + Palbociclib; first compound 0.002 µM) | relative viability (Bortezomib + Palbociclib; first compound 0.006325 µM) | relative viability (Bortezomib + Palbociclib; first compound 0.02 µM) | relative viability ([1]; first compound 0.08 µM) | relative viability ([1]; first compound 0.253 µM) | relative viability ([1]; first compound 0.8 µM) | relative viability ([1]; first compound 2.53 µM) | relative viability ([1]; first compound 8 µM) | relative viability ([2]; first compound 0.08 µM) | relative viability ([2]; first compound 0.253 µM) | relative viability ([2]; first compound 0.8 µM) | relative viability ([2]; first compound 2.53 µM) | relative viability ([2]; first compound 8 µM)
LOU-NH91 | 0.497 | 0.523 | 0.429 | 0.422 | 0.464 | 0.512 | 0.523 | 0.383 | 0.32 | 0.302 | 0.953 | 1.01 | 0.98 | 0.775 | 0.501 | 0.775 | 0.757 | 0.741 | 0.706 | 0.403
LU99A | 0.426 | 0.377 | – | 0.402 | 0.4 | 0.464 | 0.364 | 0.405 | 0.261 | 0.164 | 0.489 | 0.485 | 0.466 | 0.228 | 0.138 | 0.554 | 0.549 | 0.452 | 0.16 | 0.13
LXF-289 | 0.588 | 0.609 | 0.588 | 0.629 | 0.613 | 0.573 | 0.58 | 0.633 | 0.102 | 0.0908 | 0.932 | 1.01 | 0.914 | 0.447 | 0.36 | 0.817 | 0.825 | 0.682 | 0.23 | 0.0611
NCI-H23 | 0.49 | 0.548 | 0.496 | 0.475 | 0.39 | 0.456 | – | 0.398 | 0.158 | 0.13 | 0.61 | 0.641 | 0.58 | 0.313 | 0.163 | 0.559 | 0.603 | 0.439 | 0.181 | 0.108
NCI-H322M | 0.491 | 0.485 | 0.58 | 0.501 | 0.452 | 0.486 | 0.448 | 0.463 | 0.441 | 0.404 | 0.89 | 0.965 | 0.895 | 0.515 | 0.323 | 0.97 | 0.866 | 0.817 | 0.447 | 0.128
NCI-H358 | 0.13 | 0.127 | 0.142 | 0.114 | 0.117 | 0.158 | 0.11 | 0.0987 | 0.0826 | 0.0983 | 0.733 | 0.736 | 0.331 | 0.14 | 0.11 | 0.607 | 0.478 | 0.264 | 0.14 | 0.11
NCI-H441 | 0.231 | 0.214 | 0.261 | 0.167 | 0.155 | 0.22 | 0.2 | 0.129 | 0.109 | 0.101 | 0.483 | 0.584 | 0.444 | 0.196 | 0.0922 | 0.689 | 0.794 | 0.457 | 0.254 | 0.15
NCI-H460 | 0.153 | 0.14 | 0.201 | 0.055 | 0.0295 | 0.181 | 0.283 | 0.155 | 0.0455 | 0.0161 | 0.668 | 0.869 | 0.539 | 0.0075 | 0.0036 | 0.948 | 0.839 | 0.159 | 0.0358 | 0.0091
NCI-H520 | 0.287 | 0.23 | 0.331 | 0.187 | 0.151 | 0.198 | 0.18 | 0.169 | 0.141 | 0.131 | 1.01 | 0.995 | 0.664 | 0.233 | 0.122 | 0.798 | 0.778 | 0.473 | 0.251 | 0.0942
NCI-H647 | 0.458 | 0.321 | 0.398 | 0.151 | 0.0783 | 0.385 | 0.251 | 0.426 | 0.0189 | 0.0229 | 1.06 | 1.25 | 1.21 | 0.0813 | 0.0644 | 1.19 | 1.06 | 0.683 | 0.0821 | 0.0474
NCI-H661 | 0.393 | 0.397 | 0.465 | 0.413 | 0.34 | 0.4 | 0.409 | 0.434 | 0.284 | 0.203 | 0.618 | 0.579 | 0.663 | 0.44 | 0.182 | – | 1.23 | 1.08 | 0.945 | 0.383
NCI-H727 | 0.608 | 0.618 | 0.779 | 0.62 | 0.646 | 0.751 | 0.603 | 0.623 | 0.684 | 0.23 | 0.208 | 0.342 | 0.261 | 0.221 | 0.1 | 0.856 | 0.805 | 0.767 | 0.348 | 0.185
NCI-H838 | 0.223 | 0.219 | 0.19 | 0.195 | 0.146 | 0.211 | 0.23 | 0.191 | 0.136 | 0.103 | 0.999 | 1.25 | 0.857 | 0.747 | 0.122 | 0.89 | 0.936 | 0.742 | 0.434 | 0.0999
NCI-H1355 | 0.398 | 0.391 | 0.371 | 0.387 | 0.369 | 0.394 | 0.4 | 0.398 | 0.24 | 0.138 | 0.797 | 0.843 | 0.779 | 0.62 | 0.41 | 1 | 1.04 | 1.07 | 0.756 | 0.253
NCI-H1437 | 0.306 | 0.311 | 0.324 | 0.31 | 0.237 | 0.305 | 0.35 | 0.319 | 0.135 | 0.118 | 1.09 | 1.12 | 0.88 | 0.416 | 0.083 | 0.773 | 0.922 | 0.898 | 0.999 | 0.225
NCI-H1651 | 0.522 | 0.501 | 0.524 | 0.553 | 0.554 | 0.505 | 0.504 | 0.401 | 0.113 | 0.103 | 0.904 | 1.2 | 0.855 | 0.607 | 0.144 | 0.839 | 0.911 | 0.808 | 0.738 | 0.482
